This is an account of results in patent US20240190851A1, “FURAN FUSED RING-SUBSTITUTED GLUTARIMIDE COMPOUND” (MEDSHINE DISCOVERY INC., priority 2021, published 2024).

Where a name gives a salt, the structure may show the parent alone.

The assay concerns the target T1, androgen receptor AR (Homo sapiens, UniProt P10275, T878A).
T1 construct: degradation effect of compounds on androgen receptor AR in LNCaP cells; endogenous in cells; host or cells: LNCaP
T1 sequence (P10275 1-920 T878A): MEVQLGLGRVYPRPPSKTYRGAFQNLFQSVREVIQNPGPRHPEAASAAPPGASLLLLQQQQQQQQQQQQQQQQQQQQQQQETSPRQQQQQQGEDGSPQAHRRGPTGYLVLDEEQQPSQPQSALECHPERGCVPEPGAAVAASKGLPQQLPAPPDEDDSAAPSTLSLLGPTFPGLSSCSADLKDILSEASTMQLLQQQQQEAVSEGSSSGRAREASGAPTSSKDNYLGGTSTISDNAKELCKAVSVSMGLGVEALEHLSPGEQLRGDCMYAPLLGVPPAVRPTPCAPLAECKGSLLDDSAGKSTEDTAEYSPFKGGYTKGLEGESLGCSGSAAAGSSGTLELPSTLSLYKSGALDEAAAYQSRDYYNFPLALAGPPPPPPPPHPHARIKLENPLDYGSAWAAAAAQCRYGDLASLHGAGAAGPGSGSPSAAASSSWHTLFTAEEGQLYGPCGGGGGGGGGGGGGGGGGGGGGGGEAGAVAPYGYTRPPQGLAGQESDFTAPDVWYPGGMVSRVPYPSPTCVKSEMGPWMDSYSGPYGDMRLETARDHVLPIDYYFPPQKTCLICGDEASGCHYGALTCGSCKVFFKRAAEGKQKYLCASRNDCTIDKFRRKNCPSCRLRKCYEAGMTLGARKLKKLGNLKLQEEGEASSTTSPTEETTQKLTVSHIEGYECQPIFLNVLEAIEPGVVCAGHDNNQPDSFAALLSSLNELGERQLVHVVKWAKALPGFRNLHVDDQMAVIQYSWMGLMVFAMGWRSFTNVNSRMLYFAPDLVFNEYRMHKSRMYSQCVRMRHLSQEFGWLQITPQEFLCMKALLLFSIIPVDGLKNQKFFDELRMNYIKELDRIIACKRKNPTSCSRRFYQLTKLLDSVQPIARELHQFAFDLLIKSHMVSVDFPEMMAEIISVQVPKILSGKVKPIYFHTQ
Kind of assay: AR degradation in LNCaP cells by ICW method. In kind it is cell-based. Conditions: 24 hours. The method, then:
Experimental purpose: To test the degradation effect of compounds on androgen receptor AR in LNCaP cells by ICW method.
Day 1 • 1. The cell culture medium, 0.025% trypsin, and phosphate buffered saline were preheated in a 37° C. water bath. • 2. Cells digested by trypsin were centrifuged at 1000 rpm for 5 minutes. The supernatant was discarded, and then the cells were resuspended in fresh culture medium. • 3. The cells were inoculated in a COL-Coated CellCarrier-384 plate at a density of 4 k/[…]/well. • 4. The 384 cell plate inoculated with cells was placed in an ultra-clean bench for 10 minutes. • 5. The cell plate was cultured overnight in a CO2 cell incubator.
Day 2 • 1. The compound at a concentration of 10 mM was diluted to 3 mM (3 μL+7 μL of dimethyl sulfoxide) before serial dilution. • 2. The compound was serially diluted 3-fold (4 μL+8 μL) in an Echo plate using Bravo. • 3. ZPE and HPE control wells were setup, and the ZPE control wells were dimethyl sulfoxide. • 4. The Echo plate was centrifuged at 1000 rpm for 1 minute, and then the diluted compound was transferred from the Echo plate to an intermediate plate using Echo with 200 nL/well. • 5. To the intermediate plate was added the cell culture medium using Multidrop combi with […]. • 6. The intermediate plate was shaken on a horizontal shaker for 1 minute to mix the compound well with the culture medium. • 7. The compound was transferred from the intermediate dilution plate to the cell plate using Bravo with 4 μL/well. • 8. The cell plate was shaken on the horizontal shaker for 1 minute, and centrifuged at 800 rpm for 30 seconds. • 9. The cell plate was returned to the CO2 incubator, and cultured for another 24 hours.
Day 3 • 1. 4% paraformaldehyde was removed from the refrigerator and brought to room temperature. • 2. The cell plate was removed from the incubator. • 3. To the cell plate was directly added 4% paraformaldehyde with 40 μL/well. • 4. The plate was incubated at room temperature for 20 minutes. • 5. The culture medium was manually shaken off from the cell plate, inverted in a centrifuge, and centrifuged at 800 rpm for 7 seconds to fully remove the residual culture medium. • 6. To the cell plate was added 4% paraformaldehyde with 25 μL/well. • 7. The plate was incubated at room temperature for 30 minutes. • 8. The paraformaldehyde solution was manually shaken off from the cell plate, inverted in the centrifuge, and centrifuged at 800 rpm for 7 seconds. • 9. 0.1% Trition was added with 25 μL/well. • 10. The plate was incubated at room temperature for 10 minutes. • 11. The 0.1% Trition solution was manually shaken off from the cell plate, inverted in the centrifuge, and centrifuged at 800 rpm for 7 seconds. • 12. Intercept® (PBS) blocking buffer was added with 25 μL/well. • 13. The plate was incubated at room temperature for 1 hour. • 14. The Intercept® (PBS) blocking buffer solution was manually shaken off from the cell plate, inverted in the centrifuge, and centrifuged at 800 rpm for 7 seconds. • 15. Primary antibody solution was added with 20 μL/well. The cell plate was placed in the centrifuge, and centrifuged at 800 rpm for 7 seconds. • 16. The cell plate was sealed, and then incubated overnight at 4° C.
Day 4 • 1. The primary antibody solution was manually shaken off from the cell plate, inverted in the centrifuge, and centrifuged at 800 rpm for 7 seconds. • 2. The plate was washed three times with 110 μL of PBS. • 3. The cell plate was inverted in the centrifuge, and centrifuged at 800 rpm for 7 seconds. • 4. Secondary antibody and DAPI solution was added with 20 μL/well. The cell plate was placed in the centrifuge, and centrifuged at 800 rpm for 7 seconds. • 5. The plate was incubated at room temperature for 1 hour. • 6. The secondary antibody and DAPI solution was manually shaken off from the cell plate, inverted in the centrifuge, and centrifuged at 800 rpm for 7 seconds. • 7. […]

For `N#Cc1ccc(O[C@H]2CC[C@H](NC(=O)c3ccc(N4CCC(CN5CCN(c6cccc7c6ccc6occ(C8CCC(=O)NC8=O)c67)CC5)CC4)nn3)CC2)cc1Cl` (stereo partly shown) [Hydrochloride of WX015], half-maximal degradation (DC50) was put at 13.7 nM and the Dmax was 102%.

Regarding `CC1(C)C(=O)N(c2ccc(C#N)c(C(F)(F)F)c2)C(=S)N1c1ccc(OCCN2CCN(CC(=O)Nc3ccc4c(C5CCC(=O)NC5=O)coc4c3)CC2)c(F)c1` (stereo not shown) [WX002], the half-maximal degradation concentration (DC50) was 8.9 nM and the Dmax came out at 72%.

For orientation: DC50 means the midpoint of the concentration-degradation curve. A high value points to degradation only at high concentration. The term Dmax denotes the greatest extent of degradation seen.
